This is an account of results in patent publication US8951507B2, “Formulation with irritation reducing action comprising bisabolol and [6]-paradol” (Symrise AG, priority 2009, dated 2015).

As usually defined, the IC50 is the concentration that inhibits the measured activity by half.

The subject of series [1] is PGE2 release of human skin cells (keratinocytes). The series can be described thus: Anti-Prostaglandin E2 (PGE2) assay, A23187-induced PGE2 release, ELISA. It is filed as cell-based. The settings on record: for Maximum PGE2 inhibition: at optimum concentration, versus A23187-stimulated control; for Optimum: concentration giving maximum PGE2 inhibition; for IC50: primary human epidermal keratinocytes, 2 μM A23187 calcium ionophore, at least two independent experiments, read-out: IC50 (50% of PGE2 release is inhibited). How it is done: PGE2 is an important inflammatory mediator in the skin. Thus, the inhibiting effect of [6]-paradol and related compounds on (A23187-induced) PGE2 release of human skin cells (keratinocytes) is investigated.
Primary human epidermal keratinocytes are seeded into a 96 well microplate and are cultured in KGM medium to 60-80% confluency. Afterwards, the KGM medium is substituted by KGM medium depleted of hydrocortisone but containing the test compounds (test compound solutions are applied in medium in three different concentrations, each as a triple determination in three different wells, e.g. for [6]-paradol: in experiment 1 the following concentrations were used: 20 μM, 2 μM and 0.2 μM, in experiment 2 the following concentrations were used: 10 μM, 1 μM and 0.1 μM and in experiment 3 the following concentrations were used: 2.5 μM, 0.25 μM and 0.025 μM.
The cells are incubated for 30 minutes. Then, PGE2 release is stimulated by addition of 2 μM A23187 calcium ionophore. After further 30 min incubation, the PGE2 content of the supernatant is quantified in an ELISA (PGE2 Enzyme Immunoassay System from GE Healthcare).
The results set out above were obtained from at least two independent experiments. PGE2 inhibition was calculated in comparison to the calcium ionophore A23187-induced stimulated control (without addition of test compounds).

The conditions of series [2]: literature reports; cited from earlier work.
Series [3] is described as follows: Stability in cosmetic compositions or products at varying pH (own experiments). The settings on record: basic, neutral or acidic cosmetic compositions or products. It counts as physicochemical. The text has this:
Furthermore, in contrast to gingerols and shogaols, in particular to gingerols, which are labile and prone to degradation (J. Pharm. Sci. 2001, 1658-1664), thus showing insufficient stability, according to own experiments [6]-paradol is very stable in cosmetic compositions or products, even at varying pH-values, i.e. in basic, neutral or acidic cosmetic compositions or products.
The synergistic combinations of bisabolol and [6]-paradol, i.e. the formulations according to the present invention, are preferably colourless, are advantageously of low odour and show good stability even at pH values […], which is of particular interest for several cosmetic products such as sunscreen formulations, soaps, deo sticks, alkaline hair colourations and oral care formulations like tooth pastes. The synergistic combinations of bisabolol and [6]-paradol are advantageously stable over a wide range of pH-values, generally in cosmetic compositions or products having a pH-value in the range of 4 to 10, in particular in cosmetic compositions or products having a pH-value in the range of 5 to 9.

Entries after “also recorded” stand apart in the source; their conditions may differ. Where two headings read alike, the source gives them in different places.

With `CCCCC[C@H](O)CC(=O)CCc1ccc(O)c(OC)c1` [[6]-Gingerol], in series [1], the “Maximum PGE2 inhibition” value is roughly 30%, the Optimum worked out at 5 µM and the IC50 stood at 3.47 ± 4.08 µM. The Mutagenicity entry in series [2] is given as “potent mutagen”.

Turning to `CCCCCCCC(=O)CCc1ccc(O)c(OC)c1` [[6]-Paradol, 1-(4-hydroxy-3-methoxyphenyl)-decan-3-one], the concentration for half-maximal inhibition (IC50) in series [1] (Keratinocyte) amounted to 0.13 µM. Also, the “PGE2 inhibitory activity compared with the other tested compounds” value in series [1] (among [6]-paradol, [6]-gingerol, [8]-gingerol and [8]-paradol) is “most active; also recorded: highest activity”. In series [1], the “Maximum PGE2 inhibition” value is on record as 90-100% and the Optimum was found to be 5 µM. Further, in series [3], the “Stability in cosmetic compositions or products” value is reported as “very stable”. Moreover, the Mutagenicity result in series [2] is “not mutagenic”.

As for `CCCCCCC[C@H](O)CC(=O)CCc1ccc(O)c(OC)c1` [[8]-Gingerol], in series [1], the “Maximum PGE2 inhibition” value was roughly 70%, the Optimum is 20 µM and the IC50 was 1.42 ± 0.67 µM.

For `CCCCCCCCCC(=O)CCc1ccc(O)c(OC)c1` [[8]-Paradol], in series [1], the “Maximum PGE2 inhibition” value was 80-100%, the Optimum was 10 µM and the 50% inhibitory concentration (IC50) was found to be 1.48 ± 1.21 µM.
